Results on 5 compounds are retold here after ChEMBL document CHEMBL1126510, “Synthesis of D-3-deoxy-3-phosphonomethyl-myo-inositol and its dimethyl ester - compounds of use in studying the ptdins-3-kinase signalling pathway” (Bioorg Med Chem Lett, 1993).

Conditions in all cases: Mus musculus
The subject of assay [1] is NIH3T3. The assay can be described thus: Inhibitory activity against growth of vis-sis transformed NIH 3T3 cells at 1 mM; IA means inactive. It counts as functional, cell-based.
Assay [2] relates to NIH3T3. Briefly: Inhibitory activity against growth of wild type NIH 3T3 cells at 1 mM. It counts as functional.
The subject of assay [3] is NIH3T3. The assay can be described thus: Inhibitory activity against growth of wild type NIH 3T3 cells at 1 mM; IA means inactive. In kind it is functional, cell-based.
For assay [4], the system named is NIH3T3. Briefly: Inhibitory concentration against growth of vis-sis transformed NIH 3T3 cells at 1 mM; IA means inactive. In kind it is functional, cell-based.
Assay [5] has as its system NIH3T3. Briefly: Inhibitory concentration against growth of vis-sis transformed NIH 3T3 cells with inositol. It counts as functional, cell-based.
In assay [6] the test system is NIH3T3. The assay can be described thus: Inhibitory concentration against growth of vis-sis transformed NIH 3T3 cells without inositol. In kind it is functional, cell-based.
Assay [7] concerns NIH3T3. The assay can be described thus: Inhibitory concentration against growth of wild type NIH 3T3 cells with inositol. In kind it is functional, cell-based.
Assay [8] concerns NIH3T3. The assay can be described thus: Inhibitory concentration against growth of wild type NIH 3T3 cells without inositol. In kind it is functional, cell-based.

SMILES strings stand for the structures. pIC50: −log10 of the molar value. The source made the active and inactive calls. The rule behind the calls is not given here.

Consider `O=P(O)(O)CC1C(O)[C@H](O)C(O)[C@@H](O)C1O` (some centres undefined), for which the inhibition (as a rule, how much of the control response was suppressed) in the assay with NIH3T3 [1] is “inactive”. Further, at 1000 µM the inhibition in the assay on NIH3T3 [2] was 30%.
The corresponding values for `COP(=O)(CC1C(O)[C@H](O)C(O)[C@@H](O)C1O)OC` (some centres undefined) are “inactive” and 30%.
`C=C1C(O)[C@H](O)C(O)[C@@H](O)C1O` (some centres undefined): the inhibition result with NIH3T3 [3] and in the assay with NIH3T3 [4] was “inactive” each time.
Consider `OC1C(O)C(O)C(CI)C(O)C1O` (centres undefined), for which the pIC50 (usually the negative decadic logarithm of the IC50, by convention in mol/L) with NIH3T3 [5] was 1.25; with NIH3T3 [6], 1.70; with NIH3T3 [7], 1.37; in the assay on NIH3T3 [8], 1.62.
`OCC1C(O)C(O)C(O)C(O)C1O` (centres undefined): the pIC50 in the assay on NIH3T3 [5] is 2.26; in the assay with NIH3T3 [6], 2.00; in the assay with NIH3T3 [7], 2.37; in the assay on NIH3T3 [8], 1.62.
